# Experimental data taken from publication PMC6562610, “Inhibition of Hedgehog Signaling in Fibroblasts, Pancreatic, and Lung Tumor Cells by Oxy186, an Oxysterol Analogue with Drug-Like Properties” (Cells, 2019).
# Entries after “also recorded” stand apart in the source; their conditions may differ.
# Columns and labels:
# [1] = tested on: Gli1 expression in A549 cells; test: Inhibition of Gli1 expression in A549 cells, Q-RT-PCR; format: cell-based, human; settings: 10 µM, 72 h
# From the text: (§1) NIH3T3-E1 fibroblasts were obtained from ATCC (Manassas, VA) and cultured, as previously described. CAPAN-1 and PANC-1 human pancreatic cancer cells were obtained from ATCC and cultured in Dulbecco’s Modified Eagle Medium (DMEM) containing 10% heat-inactivated fetal bovine serum (FBS) (Hyclone Laboratories, Logan, UT, USA) and antibiotics, as previously described. The human lung cancer cell lines A549 and H2030 were obtained from ATCC and cultured in RPMI-1640 containing 10% FBS. The human hepatoma cell line HepG2 was obtained from ATCC and cultured in DMEM containing 10% FBS. Mouse embryonic fibroblasts (MEFs) from suppressor of fused (Sufu) null mice (Sufu^−/−) were provided by Dr. Philip Beachy of Stanford University and cultured in DMEM containing 10% FBS. Gant61, SB431542 and vismodegib (GDC0449) were obtained from Cayman Chemical, HPI-1 was obtained from Abcam. For experiments, cells were treated in a medium containing 5% FBS.
# (§2) Total RNA was extracted with the RNeasy Plus Mini Kit from Qiagen, according to the manufacturer’s instructions. One microgram of RNA was reverse-transcribed using an iScript Reverse Transcription Supermix from Bio-Rad, to make single-stranded cDNA. The cDNAs were then mixed with Qi SYBR Green Supermix (Bio-Rad, Hercules, CA, USA) for quantitative RT-PCR assay using a Bio-Rad I-cycler IQ quantitative thermocycler. All PCR samples were prepared in triplicate wells in a 96-well plate. […] Fold changes in gene expression were calculated using the ΔΔCt method. […]
# (§3) Figure 4 Inhibition of Gli and Shh expression in (a) PDAC (PANC-1) and (b,c) human lung cancer cells (A549 and H2030, respectively) by Oxy186. Cells were treated with the compounds as indicated in DMEM or RPMI 1640 containing 5% FBS for (a) 48 or (b,c) 72 hours, then RNA was extracted and analyzed by Q-RT-PCR for the expression of Gli1 and normalized to GAPDH expression. (d) CAPAN-1 cells were treated with the compounds, as indicated, in DMEM containing 5% FBS for 72 h, then RNA was extracted and analyzed by Q-RT-PCR for the expression of Shh and normalized to GAPDH expression. […]
# [2] = tested on: Hh pathway target genes Gli1, Ptch1, and Hip in Sufu-/- mouse embryonic fibroblasts; test: Inhibition of Hh target gene expression in Sufu-/- MEFs, Q-RT-PCR; format: cell-based; settings: 10 µM, 72 h
# From the text: as §1, with “Gant61, SB431542 and vismodegib (GDC0449) were obtained from Cayman Chemical, HPI-1 was obtained from Abcam. For experiments, cells were treated in a medium containing 5% FBS.” left out
# Total RNA was extracted with the RNeasy Plus Mini Kit from Qiagen, according to the manufacturer’s instructions. […] The cDNAs were then mixed with Qi SYBR Green Supermix (Bio-Rad, Hercules, CA, USA) for quantitative RT-PCR assay using a Bio-Rad I-cycler IQ quantitative thermocycler. […] Fold changes in gene expression were calculated using the ΔΔCt method. […]
# Figure 5 Oxy186 acts downstream of Smo. […] After 72 h, RNA was extracted and analyzed by Q-RT-PCR for the expression of Hh target genes Gli1, Ptch1, and Hip, normalized to Oaz1 expression. […] Luciferase activity was measured and normalized to the Renilla luciferase activity. […]
# [3] = Metabolic stability in human liver microsomes; format: in vitro ADME
# [4] = tested on: endogenous Gli activity in Sufu-/- cells; test: Gli responsive luciferase reporter in Sufu-/- cells; format: cell-based, mouse; settings: 10 µM, 72 h
# Procedure: (§4) NIH3T3-E1 and Sufu^−/− cells cultured in 24-well plates at 90% confluence were transiently transfected with 0.1 µg of Gli response-element reporter (pGL3b-8xGli-Luciferase) plasmid, and 10 ng of pTK-Renilla-Luciferase plasmid with or without co-transfection with 10 ng of Gli1 overexpression vector, pSRα-Gli1, as previously described using Lipofectamine LTX Plus transfection reagent (Invitrogen). Twenty-four h after transfection, cells were treated with test agents for 72 h. Then the firefly and Renilla luciferase activities were measured using a dual luciferase kit (Promega, Madison, WI, USA) and a GloMax-96 Microplate Luminometer. The firefly luciferase activities were normalized to the Renilla luciferase activities. Data are reported as the mean of triplicate determinations ± SD.
# (§5) Figure 5 Oxy186 acts downstream of Smo. (a) Sufu^−/− mouse embryonic fibroblast (MEF) cells were treated with DMEM containing 10% FBS in the presence or absence of Oxy186 (10 µM). After 72 h, RNA was extracted and analyzed by Q-RT-PCR for the expression of Hh target genes Gli1, Ptch1, and Hip, normalized to Oaz1 expression. […] Luciferase activity was measured and normalized to the Renilla luciferase activity. […]
# PANC-1 cells = test: Cell counting assay, PANC-1; format: cell-based, human; settings: 96 h
# Procedure: (§6) A549 and H2030 cells cultured in 12-well plates at 20% confluence were treated with Oxy186, HPI-1, Gant61, or GDC0449 for 96 hours and then trypsinized and suspended in fresh medium. An aliquot of cell suspension was applied to a hemocytometer and counted under a microscope.
# (§7) Figure 6 Inhibition of human pancreatic and lung cancer cell proliferation by Oxy186. (a,c) A549, (b) and (d) H2030, (e) PANC-1, and (f) CAPAN-1 cells were treated with the compounds as indicated in RPMI 1640 (a–d) or DMEM (e,f) containing 5% FBS for 96 h and then were trypsinized and counted. Data from a representative experiment are reported as the mean of triplicate determinations ± SD (* p < 0.05 vs. Control; ** p < 0.01 vs. control).
# [5] = tested on: Gli1 expression in H2030 cells; test: Inhibition of Gli1 expression in H2030 cells, Q-RT-PCR; format: cell-based, human; settings: 10 µM, 72 h
# From the text: as §1, §2, §3
# [6] = tested on: Gli1 transcriptional activity in NIH3T3-E1 cells; test: Gli responsive luciferase reporter trans-activated by exogenous Gli1; format: cell-based, mouse; settings: 72 h
# Procedure: as §4, §5
# CAPAN-1 cells = test: Cell counting assay, CAPAN-1; format: cell-based, human; settings: 96 h
# Procedure: as §6, §7
structure (smiles),measurement,setting,value
"C[C@]12CC[C@H](O)C[C@@H]1CC[C@@H]1[C@@H]2CC[C@@]2(C)[C@H]1CC[C@@H]2[C@](C)(O)CCc1ccc(F)cc1 [Oxy186, (3S,5S,8R,9S,10S,13S,14S,17S)-17-((R)-4-(4-fluorophenyl)-2-hydroxybutan-2-yl)-10,13-dimethylhexadecahydro-1H-cyclopenta[a]phenanthren-3-ol]",Inhibition of expression of Gli1,[1],significantly inhibited
same,"Inhibition of high baseline expression of Hh pathway target genes Gli1, Ptch1, and Hip",[2],significant inhibition
same,"HLM, Half-Life",[3],45 min
same,remaining at 1 h,"[3]; 60 min, read-out: HLM, % Remaining after 60 min",40%
same,half-life,"[3]; human, liver microsomes, read-out: HLM, Half-Life",43 min
same,Inhibition of Gli responsive luciferase reporter activity (endogenous Gli),[4],significantly inhibited
same,Anti-proliferation effect,PANC-1 cells,significant anti-proliferation effects
same,Inhibition of expression of Gli1,[5],significantly inhibited
same,Inhibition of Gli responsive luciferase reporter trans-activated by over expressed exogenous Gli1,[6],significantly inhibited
same,Anti-proliferation effect,CAPAN-1 cells,significant anti-proliferation effects; also recorded: moderate anti-proliferative effects
